Test results as given in BindingDB's records for patent US10710978 (DANA-FARBER CANCER INSTITUTE, INC.; FONDAZIONE CENTRO SAN …, 2020).

Molecular target: T1, Serine/threonine-protein kinase 4 (Human, UniProt Q13043)
T1 sequence (Q13043 whole entry): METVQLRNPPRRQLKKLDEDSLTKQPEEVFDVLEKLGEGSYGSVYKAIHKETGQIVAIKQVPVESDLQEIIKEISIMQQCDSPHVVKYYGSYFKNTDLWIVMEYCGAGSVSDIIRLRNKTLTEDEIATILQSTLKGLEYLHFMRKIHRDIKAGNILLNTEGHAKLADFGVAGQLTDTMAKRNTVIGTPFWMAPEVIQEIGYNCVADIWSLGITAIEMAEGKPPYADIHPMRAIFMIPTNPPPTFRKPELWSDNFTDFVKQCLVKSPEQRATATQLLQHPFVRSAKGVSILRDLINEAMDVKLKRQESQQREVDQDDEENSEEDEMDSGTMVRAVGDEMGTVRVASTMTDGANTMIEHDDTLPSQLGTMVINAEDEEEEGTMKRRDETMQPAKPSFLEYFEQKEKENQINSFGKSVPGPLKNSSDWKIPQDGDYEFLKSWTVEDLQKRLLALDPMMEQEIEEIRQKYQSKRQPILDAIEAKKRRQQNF
Assay: Biochemical Assay
Description: Biochemical IC50s were measured at Invitrogen using Z-lyte technology. Briefly, for STK4, the 2×STK4 (MST1)/Ser/Thr 07 mixture was prepared in 50 mM HEPES pH 7.5, 0.01% BRIJ35, 10 mM MgCl2, 1 mM EGTA. The final 10 μL Kinase Reaction consisted of 6.25-160 ng STK4 (MST1) and 2 μM Ser/Thr 07 in 50 mM HEPES pH 7.5, 0.01% BRIJ-35, 10 mM MgCl2, 1 mM EGTA. After the 1 hour Kinase Reaction incubation, 5 μL of a 1:100000 dilution of Development Reagent A was added. Compounds were screened in a 10 point titration with 3-fold serial dilutions starting at a concentration of 10 μM. The biochemical IC50s against other STK family members were measured similarly. The ATP concentration used matched the Km for each kinase.

| SMILES | IC50 |
| --- | --- |
| Nc1ncc(-c2cccc3sccc23)cc1-c1ccc2c(c1)CCNC2=O [US10710978, Compound I-15] | < 40 nM |
| Cc1cc(S(=O)(=O)N(C)C2CC2)ccc1-c1cnc(N)c(-c2ccc3c(c2)CCNC3=O)c1 [US10710978, Compound I-46] | < 40 nM |
